According to patent US7745446B2, “Pyrazolo[1,5-c]pyrimidines” (Bayer Schering Pharma Aktiengesellschaft, priority 2004, dated 2010):

What was measured:
[1] = target: T1, full-length Akt1 (inactive) (Homo sapiens, UniProt P31749); assay: Biochemical Akt1 assay (full-length Akt1 inactive, PDK1-dependent activation, IMAP); conditions: PDK1 and PIP3 vesicles, 50 μM ATP; read-out: Inhibition of Akt1 activation (full-length Akt1, inactive): IC50
T1 construct: recombinant full-length human Akt1 a containing N-terminal His6 tag; His6 (N); purchased Upstate, UK #14-279; host or cells: baculovirus infected Sf21 insect cells
T1 sequence (P31749 whole entry): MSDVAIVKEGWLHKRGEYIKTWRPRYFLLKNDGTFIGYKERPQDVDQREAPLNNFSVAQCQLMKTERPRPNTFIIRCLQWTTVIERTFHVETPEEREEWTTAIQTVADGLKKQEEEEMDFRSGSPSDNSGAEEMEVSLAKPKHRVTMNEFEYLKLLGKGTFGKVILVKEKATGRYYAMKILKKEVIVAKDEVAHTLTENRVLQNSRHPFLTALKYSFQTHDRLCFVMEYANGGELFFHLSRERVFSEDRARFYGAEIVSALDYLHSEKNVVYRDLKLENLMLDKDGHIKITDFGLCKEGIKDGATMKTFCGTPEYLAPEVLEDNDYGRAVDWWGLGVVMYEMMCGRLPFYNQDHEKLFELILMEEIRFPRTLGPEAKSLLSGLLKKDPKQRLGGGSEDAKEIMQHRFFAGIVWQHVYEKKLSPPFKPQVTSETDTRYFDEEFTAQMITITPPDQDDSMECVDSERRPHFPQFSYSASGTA
Experimental: The enzyme is purified using Ni2+/NTA-agarose (Upstate, UK; #14-279).
The enzyme is purified using Ni2+/NTA-agarose.
PDK1-dependent activation and subsequent enzymatic activity of Akt1: Activity of purified human Akt1 is routinely measured in an assay in which the enzyme is first activated by PDK1 in the presence of phosphatidylinositol-3,4,5-triphosphate (PIP3). Once activated, Akt1-dependent phosphorylation of a fluorescence labelled peptide substrate is measured by fluorescence polarisation using the IMAP technology (Molecular Devices).
The phospholipids are prepared as follows: 5 mg DOPC/DOPS are solved in 200 μl 10 mM Tris (pH 7.4) and 300 μg PIP3 are resuspended in 950 μl 10 mM Tris (pH 7.4) by pipetting. 950 μl solved PIP3 are mixed with 50 μl solved DOPC/DOPS and incubated for 2 h at a temperature below 20° C. Then the mixture is subjected to sonification for 30 min. at max. power until a translucent phopholipid vesicle preparation is obtained. Aliquots of the vesicle suspension are frozen at -80° C. until needed, likewise the solved DOPC/DOPS.
Assays are performed in 384-well plates. Incubations are carried out for 60 min. at room temperature. The reaction buffer mixture contained in a final volume of 25 μl: 10 mM Tris pH 7,4, 10 mM MgCl2. 1 mM DTT, and 0.1 mg/ml BSA. In contrast the activation buffer contained: 50 ng/well Akt1, 20 ng/well PDK1, 1.25 μM peptide substrat, 50 μM ATP, and phospholipid vesicles (1:20). Test compounds are added from stock solutions in DMSO before activation of Akt1 by PDK1. After the incubation the beads (IMAP binding reagent; Molecular Devices; 1:167) are added and the fluorescence polarization is measured (excitation 485 nm, emission 530 nm).

[2] = tested on: phosphorylated GSK3 (Ser9) in MCF7 cells; assay: Cellular pGSK3 assay (pGSK3-ELISA); type: cell-based; conditions: Homo sapiens, 48 h, read-out: GSK3 inhibition (pGSK3-ELISA): IC50
Experimental: In order to study the cellular activity of the compounds according to the invention, an ELISA-based assay has been established for the phosphorylated glycogen synthetase kinase 3, GSK3. The assay is based on a solid phase sandwich ELISA that detects endogenous levels of the phosphorylated GSK3 (BioSource International, Inc.; Catalog #KH00461). A phospho-GSK3 (Ser9) antibody has been coated onto the microwells. After incubation with cell lysates, the coated antibody captures the phosphorylated GSK3 protein. Following extensive washing, GSK3 polyclonal antibody is added to detect the captured phospho-GSK3 protein. […] (anti-rabbit IgG-HRP) is then used to recognize the bound detection antibody. After the second incubation and washing to remove all the excess anti-rabbit IgG-HRP, a substrate solution is added, which is acted upon by the bound enzyme to produce color. The intensity of this colored product is directly proportional to the concentration of […] [pS9] present in the original specimen.
MCF7 cells (ATCC HTB-22) are seeded into 96 well plates at a density of 10000 cells/well.
Cells are harvested and lysed with brief vortexing in cell extraction buffer (10 mM Tris, pH 7.4, 100 mM NaCl, 1 mM EDTA, 1 mM EGTA, 1 mM NaF, 20 mM Na4P2O7, 2 mM Na3VO4, 1% Triton X-100, 10% glycerol, 0.1% SDS, 0.5% deoxycholate, 1 mM PMSF). The lysate are centrifuged for 10 minutes at 4° C. and the supernatant transferred to a new tube. 50 μl of sample diluent (standard diluent buffer, Biosource) are added and 100 μl of cell lysate transferred into the tube and vortexed. 100 μl of each diluted cell lysate are added to the appropriate well (phospho-GSK3 (Ser9) antibody coated microwells; BioSource) and incubated for 3 h at room temperature. The plates are washed 4 times with 1× wash buffer (Biosource). […] The absorbance is measured at 450 nm (Wallac Victor2; Perkin Elmer, USA) within 30 minutes after adding Stop solution. The analysis of the data is performed using a statistical program (Microsoft Excel, USA) and the inhibition of pGSK3 phosphorylation is determined.

IC50 [1] | IC50 [2] | Structure (SMILES)
≤ 5 µM | – | COc1cccc(-c2ccc(-c3cc4c(Br)cnn4c(Nc4ccc(NC(=O)c5ccc(CN)cc5)cc4)n3)cc2)c1 [Example 87, 4-Aminomethyl-N-{4-[3-bromo-5-(3′-methoxy-biphenyl-4-yl)-pyrazolo[1,5-c]pyrimidin-7-ylamino]-phenyl}-benzamide]
≤ 5 µM | < 10 µM | COc1cccc(-c2ccc(-c3cc4ccnn4c(Nc4ccc(NC(=O)c5ccc(CN)cc5)cc4)n3)cc2)c1 [Example 59, 4-Aminomethyl-N-{4-[5-(3′-methoxy-biphenyl-4-yl)-pyrazolo[1,5-c]pyrimidin-7-ylamino]-phenyl}-benzamide]
≤ 5 µM | < 10 µM | O=C(Nc1cccc(Nc2nc(-c3cccc4c3oc3ccccc34)cc3ccnn23)c1)c1ccc2c(c1)CCNC2 [Example 63, 1,2,3,4-Tetrahydro-isoquinoline-6-carboxylic acid [3-(5-dibenzofuran-4-yl-pyrazolo[1,5-c]pyrimidin-7-ylamino)-phenyl]-amide]
≤ 5 µM | < 10 µM | NCCCC(=O)Nc1ccc(Nc2nc(-c3cccc4c3oc3ccccc34)cc3ccnn23)cc1 [Example 24, 4-Amino-N-[4-(5-dibenzofuran-4-yl-pyrazolo[1,5-c]pyrimidin-7-ylamino)-phenyl]-butyramide]
